What was measured:
[1] = excess molar enthalpy (molar enthalpy of mixing); xn = mol fraction of the nth substance listed; conditions: 101 kPa, Liquid
[2] = xn = mol fraction of the nth substance listed; conditions: 293.15 K, 101 kPa, Liquid, Capillary tube (Ostwald / Ubbelohde) method
[3] = Liquid, Closed cell (Static) method

CC(O)C(=O)[O-].C[N+](C)(C)CCO [choline lactate] + O
[1]
Conditions	excess molar enthalpy [kcal/mol]
303.15 K, x2 = 0.1585	-0.938
303.15 K, x2 = 0.2269	-1.51
303.15 K, x2 = 0.3051	-2.04
303.15 K, x2 = 0.3528	-2.4
303.15 K, x2 = 0.4853	-3.35
303.15 K, x2 = 0.671	-4.12
303.15 K, x2 = 0.8719	-4.37
303.15 K, x2 = 0.9078	-3.55
303.15 K, x2 = 0.9751	-1.87
303.15 K, x2 = 0.9878	-0.604
313.15 K, x2 = 0.1687	-0.723
313.15 K, x2 = 0.2123	-1.1
313.15 K, x2 = 0.3065	-1.57
313.15 K, x2 = 0.3943	-2.11
313.15 K, x2 = 0.5019	-2.6
313.15 K, x2 = 0.603	-2.9
313.15 K, x2 = 0.738	-3.3
313.15 K, x2 = 0.8794	-3.48
313.15 K, x2 = 0.9535	-2.47
313.15 K, x2 = 0.9769	-1.55
323.15 K, x2 = 0.16	-0.368
323.15 K, x2 = 0.2662	-0.649
323.15 K, x2 = 0.331	-0.856
323.15 K, x2 = 0.5059	-1.55
323.15 K, x2 = 0.6257	-2.15
323.15 K, x2 = 0.7785	-2.6
323.15 K, x2 = 0.8805	-2.09
323.15 K, x2 = 0.9555	-1.1
323.15 K, x2 = 0.9884	-0.239

[2]
Conditions	viscosity [mPa·s]
x2 = 0.0272	5850
x2 = 0.382	940
x2 = 0.546	336
x2 = 0.731	75
x2 = 0.878	12.5
x2 = 0.915	6.5
x2 = 0.941	3.9

O [water]
[3]
Conditions	vapor or sublimation pressure [kPa]
303.15 K	4.24
313.15 K	7.38
323.15 K	12.34

— the NIST ThermoML archive (doi:10.1021/je7000232)
